In article PMC12156185, “Synthesis of Cyclic Hexapeptides via the Hydrazide Method and Evaluation of Their Antibacterial Activities” (Molecules, 2025):
Values after ≈ are worked out from the molar mass of the structure shown. Where a SMILES comes first, the peptide text is derived from it.

Assays:
[1] = Head-to-tail amide via hydrazide-based intramolecular NCL: C-terminal peptide hydrazide + NaNO2 (10 eq, pH 3, -15 °C) to acyl azide, then MPAA (40 eq) thioester, pH 6.3-6.5 (Fig 2: 6.7-7), S-to-N acyl shift onto N-terminal Cys; TCEP work-up; conditions: the molecule shown is the open-chain precursor; 18-membered ring; 0.2 M sodium phosphate, 6 M guanidine HCl (aq); 0.75 mM; 25.0 °C
[2] = tested on: Acinetobacter baumannii (BNCC 337173); format: cell-based
Procedure: (§1) The antimicrobial and antifungal activities of 11 cyclic hexapeptides (Cy-f1 to Cy-f11) were evaluated by determining their minimum inhibitory concentrations (MICs) against a panel of pathogens (Figure 4). These pathogens included Gram-negative bacteria (Escherichia coli, Klebsiella pneumoniae, Pseudomonas aeruginosa), Gram-positive bacteria (Staphylococcus aureus, Bacillus subtilis, Staphylococcus aureus [MRSA], […]), and fungi (Candida tropicalis, Cryptococcus neoformans).
(§2) The antibacterial activity of peptide analogs was tested against different bacterial strains, all purified cyclotides underwent antibacterial testing against Gram-positive bacterium Staphylococcus aureus (BNCC 186335), Bacillus subtilis (BNCC 109047), and Staphylococcus aureus (MRSA, BNCC 330041), Gram-negative bacteria, including Acinetobacter baumannii (BNCC 337173), Pseudomonas aeruginosa (BNCC 125486), and […]. Fungi included Candida parapsilosis (BNCC 336515) and Candida tropicalis (BNCC 340288). All the above strains are from the Henan Provincial Engineering Research Center of Industrial Microorganisms (Henan, China). Escherichia coli (ATCC 25922) and Klebsiella pneumoniae (CMCC(B) 46117) were sourced from Guangzhou HuanKai Microbial Technology Co., Ltd. (Guangzhou, China). The peptides’ MIC was determined using the Clinical and Laboratory Standards Institute broth dilution procedure with slight modifications.
(§3) Colonies of these bacterial strains were grown in respective agar media, then inoculated in Mueller Hinton (MH) broth and incubated at 37 °C overnight. The peptide solutions were first diluted 1 in 100 (from the stock solution at 20 mM) and then further two-fold dilution in MH broth in a sterile 96-well plate was performed, resulting in 100 µL of broth containing increasing concentrations. Bacteria in their exponential growth phase were diluted in MH broth, and 100 µL of this suspension was added in each well. […] Then, these plates were incubated at 37 °C for 20–22 h.
(§4) Each test was performed at least three times. MIC (minimum inhibitory concentration) values were determined as the concentrations of peptides that caused >99% inhibition of bacterial growth.

[3] = tested on: Bacillus subtilis (BNCC 109047); format: cell-based
Procedure: as §1, §2, §3, §4

[4] = tested on: Escherichia coli (ATCC 25922); format: cell-based
Procedure: as §1, §2, §3, §4

[5] = tested on: Klebsiella pneumoniae (CMCC(B) 46117); format: cell-based
Procedure: as §1, §2, §3, §4

[6] = tested on: Pseudomonas aeruginosa (BNCC 125486); format: cell-based
Procedure: as §1, §2, §3, §4

[7] = tested on: Staphylococcus aureus (BNCC 186335); format: cell-based
Procedure: as §1, §2, §3, §4

[8] = tested on: Staphylococcus aureus (MRSA, BNCC 330041); format: cell-based
Procedure: as §1, §2, §3, §4

[9] = tested on: Cryptococcus neoformans (BNCC 225501); format: cell-based; conditions: BNCC 225501, 48 h
Procedure: as §1, §2, §4

[10] = tested on: Candida tropicalis (BNCC 340288); format: cell-based; conditions: BNCC 340288, 24 h
Procedure: as §1, §2
Candida tropicalis was cultured on Sabourad Dextrose Agar (SDA). A single colony was inoculated in YM broth medium and grown overnight at 37 °C while shaking. Peptides were diluted in SDB media by two-fold dilution, resulting in 100 µL of medium containing increasing concentrations. The overnight culture (turbidity at OD600 = 1) was 1000× diluted in SDB. Then 100 µL of this suspension was added to each well, resulting in a final 200 µL suspension containing 2–4 × 10^5 CFU/mL. The plate was incubated at 37 °C for 24 h.
as §4

SMILES	ring closure, product found (1=cyclised, 0=failed) [1]	MIC against A. baumannii [2] [µM]	MIC against B. subtilis [3] [µM]	MIC against E. coli [4] [µM]	MIC against K. pneumoniae [5] [µM]	MIC against P. aeruginosa [6] [µM]	MIC against S. aureus [7] [µM]	MIC against MRSA [8] [µM]	MIC against C. neoformans [9] [µM]	MIC against C. tropicalis [10] [µM]
CC[C@H](C)[C@H](NC(=O)[C@H](CCCCN)NC(=O)[C@H](CC(C)C)NC(=O)[C@H](CCCCN)NC(=O)[C@@H](N)CS)C(=O)N[C@@H](Cc1ccccc1)C(=O)NN [H-Cys-Lys-Leu-Lys-Ile-Phe-NHNH2]	1	–	–	–	–	–	–	–	–	–
CC[C@H](C)[C@@H]1NC(=O)[C@H](CS)NC(=O)[C@H]([C@@H](C)CC)NC(=O)[C@H]([C@@H](C)CC)NC(=O)[C@@H]2CCCN2C(=O)[C@H](CCCNC(=N)N)NC1=O [Cy-f11] (cyclo(CIRPII))	–	> 200	64 (≈ 44.5 µg/mL)	> 200	64 (≈ 44.5 µg/mL)	> 200	> 200	> 200	128 (≈ 89.1 µg/mL)	64 (≈ 44.5 µg/mL)
CC[C@H](C)[C@H](NC(=O)[C@@H](NC(=O)[C@@H]1CCCN1C(=O)[C@H](CCCCN)NC(=O)[C@H](CCCNC(=N)N)NC(=O)[C@@H](N)CS)[C@@H](C)CC)C(=O)NN [H-Cys-Arg-Lys-Pro-Ile-Ile-NHNH2]	1	–	–	–	–	–	–	–	–	–
CC[C@H](C)[C@H](NC(=O)[C@@H]1CCCN1C(=O)[C@H](CCCCN)NC(=O)[C@H](CCCNC(=N)N)NC(=O)[C@@H](N)CS)C(=O)N[C@H](C(=O)NN)C(C)C [H-Cys-Arg-Lys-Pro-Ile-Val-NHNH2]	1	–	–	–	–	–	–	–	–	–
CC[C@H](C)[C@@H]1NC(=O)[C@H]([C@@H](C)CC)NC(=O)[C@@H]2CCCN2C(=O)[C@H](CCCCN)NC(=O)[C@H](CCCNC(=N)N)NC(=O)[C@H](CS)NC1=O [Cy-f5] (cyclo(CRKPII))	–	–	–	128 (≈ 91 µg/mL)	–	128 (≈ 91 µg/mL)	16 (≈ 11.4 µg/mL)	–	32 (≈ 22.8 µg/mL)	64 (≈ 45.5 µg/mL)
CC[C@H](C)[C@@H]1NC(=O)[C@H](CCCCN)NC(=O)[C@H](CC(C)C)NC(=O)[C@H](CCCCN)NC(=O)[C@H](CS)NC(=O)[C@H](Cc2ccccc2)NC1=O [Cy-f3] (cyclo(CKLKIF))	–	128 (≈ 93.8 µg/mL)	32 (≈ 23.5 µg/mL)	64 (≈ 46.9 µg/mL)	64 (≈ 46.9 µg/mL)	128 (≈ 93.8 µg/mL)	16 (≈ 11.7 µg/mL)	32 (≈ 23.5 µg/mL)	8 (≈ 5.86 µg/mL)	32 (≈ 23.5 µg/mL)
CC[C@H](C)[C@H](NC(=O)[C@H](CCCNC(=N)N)NC(=O)[C@@H](N)CS)C(=O)N[C@H](C(=O)N[C@H](C(=O)N[C@@H](CCCNC(=N)N)C(=O)NN)C(C)C)C(C)C [H-Cys-Arg-Ile-Val-Val-Arg-NHNH2]	1	–	–	–	–	–	–	–	–	–
CC[C@H](C)[C@H](NC(=O)[C@H](CCCCN)NC(=O)[C@H](CC(C)C)NC(=O)[C@H](CCCNC(=N)N)NC(=O)[C@@H](N)CS)C(=O)N[C@@H](Cc1ccccc1)C(=O)NN [H-Cys-Arg-Leu-Lys-Ile-Phe-NHNH2]	1	–	–	–	–	–	–	–	–	–
CC(C)C[C@H](NC(=O)[C@H](CCCCN)NC(=O)[C@@H](N)CS)C(=O)N[C@@H](CCCNC(=N)N)C(=O)N[C@@H](Cc1c[nH]c2ccccc12)C(=O)N[C@@H](Cc1ccccc1)C(=O)NN [H-Cys-Lys-Leu-Arg-Trp-Phe-NHNH2]	1	–	–	–	–	–	–	–	–	–
CC[C@H](C)[C@@H]1NC(=O)[C@H](C(C)C)NC(=O)[C@H](CCCNC(=N)N)NC(=O)[C@H](CS)NC(=O)[C@H](CCCNC(=N)N)NC(=O)[C@H]([C@@H](C)CC)NC1=O [Cy-f10] (cyclo(CRVIIR))	–	–	–	–	–	128 (≈ 94.8 µg/mL)	8 (≈ 5.93 µg/mL)	–	16 (≈ 11.9 µg/mL)	128 (≈ 94.8 µg/mL)
CC[C@H](C)[C@H](NC(=O)[C@@H](N)CS)C(=O)N[C@@H](CCCNC(=N)N)C(=O)N1CCC[C@H]1C(=O)N[C@H](C(=O)N[C@@H](CC(C)C)C(=O)NN)[C@@H](C)CC [H-Cys-Ile-Arg-Pro-Ile-Leu-NHNH2]	1	–	–	–	–	–	–	–	–	–
CC[C@H](C)[C@@H]1NC(=O)[C@@H]2CCCN2C(=O)[C@H](CCCCN)NC(=O)[C@H](CCCNC(=N)N)NC(=O)[C@H](CS)NC(=O)[C@H](C(C)C)NC1=O [Cy-f6] (cyclo(CRKPIV))	–	> 200	> 200	> 200	> 200	> 200	> 200	> 200	> 200	> 200
CC(C)C[C@H](NC(=O)[C@@H](NC(=O)[C@@H]1CCCN1C(=O)[C@H](CCCCN)NC(=O)[C@H](CCCNC(=N)N)NC(=O)[C@@H](N)CS)C(C)C)C(=O)NN [H-Cys-Arg-Lys-Pro-Val-Leu-NHNH2]	1	–	–	–	–	–	–	–	–	–
CC[C@H](C)[C@H](NC(=O)[C@@H](NC(=O)[C@@H]1CCCN1C(=O)[C@H](CCCNC(=N)N)NC(=O)[C@@H](NC(=O)[C@@H](N)CS)[C@@H](C)CC)[C@@H](C)CC)C(=O)NN [H-Cys-Ile-Arg-Pro-Ile-Ile-NHNH2]	1	–	–	–	–	–	–	–	–	–
CC(C)C[C@@H]1NC(=O)[C@H](C(C)C)NC(=O)[C@@H]2CCCN2C(=O)[C@H](CCCCN)NC(=O)[C@H](CCCNC(=N)N)NC(=O)[C@H](CS)NC1=O [Cy-f7] (cyclo(CRKPVL))	–	–	–	128 (≈ 89.2 µg/mL)	–	128 (≈ 89.2 µg/mL)	32 (≈ 22.3 µg/mL)	–	16 (≈ 11.2 µg/mL)	32 (≈ 22.3 µg/mL)
CC[C@H](C)[C@H](NC(=O)[C@H](CCCCN)NC(=O)[C@H](CC(C)C)NC(=O)[C@H](CC(C)C)NC(=O)[C@@H](N)CS)C(=O)N[C@@H](Cc1ccccc1)C(=O)NN [H-Cys-Leu-Leu-Lys-Ile-Phe-NHNH2]	1	–	–	–	–	–	–	–	–	–
CC[C@H](C)[C@@H]1NC(=O)[C@H](CS)NC(=O)[C@H](CC(C)C)NC(=O)[C@H]([C@@H](C)CC)NC(=O)[C@@H]2CCCN2C(=O)[C@H](CCCNC(=N)N)NC1=O [Cy-f9] (cyclo(CIRPIL))	–	> 200	> 200	> 200	> 200	> 200	> 200	> 200	> 200	> 200
CC[C@H](C)[C@@H]1NC(=O)[C@H](CCCNC(=N)N)NC(=O)[C@H](CS)NC(=O)[C@H](CCCNC(=N)N)NC(=O)[C@H](C(C)C)NC(=O)[C@H](C(C)C)NC1=O [Cy-f8] (cyclo(CRIVVR))	–	–	8 (≈ 5.82 µg/mL)	16 (≈ 11.6 µg/mL)	32 (≈ 23.3 µg/mL)	–	8 (≈ 5.82 µg/mL)	–	32 (≈ 23.3 µg/mL)	16 (≈ 11.6 µg/mL)
CC[C@H](C)[C@H](NC(=O)[C@@H](NC(=O)[C@H](CCCNC(=N)N)NC(=O)[C@@H](N)CS)C(C)C)C(=O)N[C@H](C(=O)N[C@@H](CCCNC(=N)N)C(=O)NN)[C@@H](C)CC [H-Cys-Arg-Val-Ile-Ile-Arg-NHNH2]	1	–	–	–	–	–	–	–	–	–
